In US20220125754A1, “TREATING THE CAUSATIVE AGENT IN ADHESIOGENESIS” (Helmholtz Zentrum München - Deutsches Forschungszentrum Für …, priority 2019, published 2022):

Experiments:
[1] = test system: heliocytes (stressed Met-5A mesothelial cells); assay: Protrusion development in desiccation-stressed Met-5A cells expressing membranous GFP (epi-fluorescence); type: cell-based, human; details: 10 μM, 24 hours, desiccation stress (FIG. 6B)
Procedure: (§1) FIG. 6: Single-cell transcriptomics of heliocytes. A) Overview of the Dropseq workflow. B) Epi-fluorescent representative images of Met-5A cells stably expressing membranous GFP, stressed with desiccation and treated with small-molecule compounds for 24 hours (10 μM). Scale bar, 10 μm. C) Desiccation shock induces small-molecule sensitive carrier-carrier aggregation as assessed with a high-throughput nanoluciferase assay. ID) Adhesion propagation assay (see methods) with nanoluciferase expressing Met-5A cells after treatment with small molecule inhibitors for 24 hours (10 μM). E) Cre-exchange transmission assay (see methods) with Cre-recombinase and Cre-dependent nanoluciferase expressing Met-5A cells after treatment with small molecule inhibitors for 24 hours (10 μM).
Met-5A cells were seeded on gelatin (Sigma Aldrich, #G1393) coated dishes. Once a confluent monolayer was established, stressed cell-covered beads were seeded onto the monolayer. For the inhibitory experiments, if not indicated otherwise, monolayer cells were pretreated with the indicated compound for 30 minutes in culture medium. Afterwards the adhesion assay was performed as described above.
Mesothelial protrusion analysis was performed using the Advanced weka segmentation Fiji plugin^37. It utilizes a collection of machine learning algorithms for segmentation. Specifically, pixel-based segmentation is based on image features annotated to different classes. Pixel samples were free drawn and assigned to respective classes, e.g. ‘filopodia’, ‘cell body’, or ‘background’. Subsequent rounds of training were performed to allot respective pixels and structures to its corresponding classes for improved segmentation. Training features, such as ‘Gaussian blur’, ‘Sobel filter’, ‘Hessian’, ‘Difference of Gaussians’ and ‘Membrane projections’ were applied along with default classifier ‘Fast Random Forest’. Other settings were kept as default (membrane thickness 1, membrane patch size 19, minimum sigma 1.0, and maximum sigma 16.0). The trained classifier and data were saved for analysis of other ‘stressed’ and ‘unstressed’ mesothelial datasets. A macro was written to automate the above steps for other datasets with pause for 5 seconds (wait(5000) function) after each step for smooth processing. Images from the segmented classes were extracted and subjected to post processing.
In order to identify underlying mechanisms of heliocyte transformation, differential gene expression analysis was performed using a likelihood-ratio test for single cell gene expression data^21. This identified 1644 genes that were regulated in stressed cells at one or more time points (FDR<10%). […]

[2] = test system: Met-5A cells on microcarrier beads; assay: High-throughput carrier-carrier adhesion assay (nanoluciferase); type: cell-based, human; details: desiccation shock, high-throughput nanoluciferase assay (FIG. 6C)
Procedure: as §1
Cells were incubated with ice cold luciferase lysis buffer (25 mM Tris-HCL pH 7.8, 1% Triton X-100, 15 mM MgSO4, 4 mM EGTA, 1 mM DTT) for 20 minutes. Both assays were performed in a 96-wells plate format. Luciferase firefly substrate was dissolved in PBS, and consisted of 20 mM Tricine, 2.67 mM MgSO4, 0.1 mM EDTA, 33.3 mM DTT, 0.52 mM ATP, 0.27 mM Acetyl-CoA, 5 mM NaOH, […], and 0.47 mM D-Luciferin (Carl Roth, #CN24.3). For nanoluciferase, the substrate solution included 47.2 μM Coelenterazine (Carl Roth, #4094.4). Luminescence was detected after 5 minutes of substrate and lysate co-incubation using the TriStar^2 LB 942 Modular Multimode microplate reader (Berthold Technologies).
Met-5A cells were seeded together with Cytodex® 3 microcarrier beads (Sigma Aldrich, #03275) in a ratio of 500:1, and allowed to adhere and grow for 5 days. Cell-covered beads were then eluted from the culture dish using a 25 mL stripette. The resulting solution was strained through a 100 μm cell strainer (Corning, #352360). […] was induced by placing the bead-containing cell strainer under a running cell culture flow hood for 15 minutes. Afterwards, beads were eluted with assay medium and placed in a cultivation dish coated with HEMA silicate solution (Sigma Aldrich, #P3932), to prevent cell attachment. After indicated time points, carrier complexes were collected by filtering them through a 200 μm cell strainer, which allows individual carriers to pass, while trapping carrier complexes. Adhesions were measured in a high throughput manner through the use of Met-5A cells stably expressing luciferase (AF23) or nanoluciferase (AF1) using Integra Viaflo pipettes.

Met-5A cells = assay: Adhesion propagation assay (nanoluciferase expressing Met-5A cells); type: cell-based, human; details: for transmissibility: 10 μM, 24 hours, adhesion propagation assay (FIG. 6D) and Cre-exchange transmission assay (FIG. 6E)
Procedure: […] After 24 hours, unbound carriers were washed away and nanoluciferase luminescence was measured. This represents the initial stress-dependent transmitted adhesion.
[…] Carriers were then separated from the monolayer and placed on an unstressed Met-5A wild-type monolayer. After 24 hours, unbound beads were washed away and nanoluciferase luminescence was measured. This represents the first stress-independent transmitted adhesion.
Carriers were then separated from the monolayer and placed on unstressed cell-covered beads stably expressing nanoluciferase (AF1) for 3 hours. Carriers were then isolated once more and placed on an unstressed Met-5A monolayer stably expressing the dTomato-P2A-NanoLuciferase reporter construct (AF34). Unbound beads were then washed away and nanoluciferase luminescence was measured after 24 hours. This represents the second stress-independent transmitted adhesion.
This procedure was continued similarly for the consecutive third and fourth transmissions.
First, repeated consecutive mixing experiments were performed with nanoluciferase-expressing Met-5A cells to study the extent of adhesion propagation. When unstressed cells were exposed to heliocytes, and then separated, they were fully able to generate adhesions even though they had not themselves experienced stress (FIG. 3F). Pharmacological inhibition of HIF-1α signaling has been one of the few proposed intervention routes to reduce adhesion burden^16, thus it was tested to see whether the HIF-1α inhibitor echinomycin could inhibit transmissibility. […] Transmission occurred rapidly, as unstressed cells only had to be exposed to heliocytes for a total of 90 min for successful transmission to occur and allow them to form adhesions themselves (FIG. 3H). Second, two additional cell lines were generated, one expressing Cre recombinase and one expressing a stop codon flanked by two LoxP sites followed by a dTomato-P2A-Nanoluciferase. In this transmission assay, Cre recombinase only drives dTomato-P2A-Nanoluc expression if extensive cytoplasmic mixing occurs that allows Cre recombinase protein to be transferred and shuttled into the nucleus of the dTomato-P2A-Nanoluc cells. Indeed, extensive dTomato fluorescence was observed 3 hours after unstressed carriers were seeded onto a stressed monolayer (FIG. 3I). Under consecutive mixing conditions, like the propagation set-up, naive cells receiving cellular contents from heliocytes could in turn transmit to other cells independently from HIF-1α signaling, for a total of three rounds after the original stress stimulus (FIGS. 3J and K). Because cytoskeletal networks and membrane shuffling are extremely sensitive to shifts in available calcium^17, it was asked whether calcium signaling underlies heliocyte formation and filipodial extensions, using two independent approaches.

adhesion formation = assay: Murine adhesion model (total adhesion score); type: in vivo, mice; details: for adhesion formation (adhesion score): daily intraperitoneal injection, day 5 after injury (FIG. 9)
Procedure: Small molecule inhibitors were solubilized in sterile 2% hydroxyethyl-cellulose (Sigma Aldrich, #09368). Compounds were being added immediately prior to surgery, and were derived from a 100-150 mM stock solution to minimize the final DMSO content. The final solution (200 μL per 30 g body weight) was sandwiched between the visceral and parietal layer of the injured cecum and peritoneum respectively.
Mice were anesthetized by an intraperitoneal injection of a Medetomidin (500 μg/kg), Midazolam (5 mg/kg) and Fentanyl (50 μg/kg) cocktail, hereafter referred to as MMF. Monitoring anesthetic depth was assessed by toe reflex. Eyes were covered with Bepanthen to avoid dehydration, and the abdomen was shaved and disinfected with betadine and sterile phosphate buffered saline (PBS). Animals were kept on their backs on a heating plate at 37° C. A midline laparotomy (1-1.5 cm) was performed through the skin and peritoneum. Four hooks, positioned around the incision and fixed to a retractor and magnetic base plate, allowed for clear access to the abdominal cavity. A small surgical brush was used to gently abrade the peritoneal surface and apposing cecal surface. Two surgical knots using 4-0 silk sutures (Ethicon) were then placed through the serosal surface of the peritoneum. A cotton swab was used to gently apply a dab of talc powder (Sigma Aldrich, #243604) onto the injured surfaces. Before closure of the incision, buprenorphine (0.1 mg/kg) was pipetted in the abdomen to allow for initial post-surgical analgesia. For long-term analgesia, metamizol (Novalgin, 200 mg/kg) was provided through daily injection. The peritoneum and skin were closed with two separate 4-0 silk sutures (Ethicon). Upon closure of the incision, mice were woken up by antagonizing the MMF solution through a subcutaneous cocktail injection of Atipamezol (1 mg/kg) and Flumazenil (0.25 mg/kg). Mice were allowed to recover on a heating pad, after which they were housed together (females) or individually (males), and followed for 1-5 days. Adhesions were scored using gross morphological features that indicated adhesion development. Five individual adhesion features were scored (see table below) that together provided a cumulative value that determined the total adhesion score. With this system, complete absence of adhesions were scored as 0, whereas the maximum adhesion score was 15.
Mice were anesthetized by an intraperitoneal injection of a Medetomidin (500 μg/kg), Midazolam (5 mg/kg) and Fentanyl (50 μg/kg) cocktail, hereafter referred to as MMF. Monitoring anesthetic depth was assessed by toe reflex. Eyes were covered with Bepanthen to avoid dehydration, and the abdomen was shaved and disinfected with betadine and sterile phosphate buffered saline (PBS). Animals were kept on their backs on a heating plate at 37° C. A midline laparotomy (1-1.5 cm) was performed through the skin and peritoneum. Four hooks, positioned around the incision and fixed to a retractor and magnetic base plate, allowed for clear access to the abdominal cavity. A small surgical brush was used to gently abrade the peritoneal surface and apposing cecal surface. Two surgical knots using 4-0 silk sutures (Ethicon) were then placed through the serosal surface of the peritoneum. A cotton swab was used to gently apply a dab of talc powder (Sigma Aldrich, #243604) onto the injured surfaces. Before closure of the incision, buprenorphine (0.1 mg/kg) was pipetted in the abdomen to allow for initial post-surgical analgesia. […]

[3] = test system: caspase3 activity in heliocytes; assay: Caspase3 activity reporter assay (nanoluciferase-caspase3 cleavage site-degradation peptide); type: cell-based, human; details: stressed mesothelial cells (heliocytes), compared to control (FIG. 12)
Procedure: Then, determination of caspase3 activity in heliocytes was performed. Cells stably expressing a nanoluciferase-caspase3-cleaving-site-degredation-peptide (FIG. 12) were grown on beads seeded onto a Met-5A monolayer. After 24 h nanoluciferase activity was determined. The degradation peptide leads to constitutive degradation of nanoluciferase, active caspase3 cleaves the protein linker, thus removing the degradation signal, leading to increased nanoluciferase amount.
(§2) In order to test listed inhibitor treatments for potential unwanted side effects, in vitro as well as in vivo apoptosis readouts were performed. […] Next, fragmented DNA amounts in the in vitro adhesions were determined, staurosporine representing as the positive control. […] Apoptosis signaling cascades dependent on caspase3 protease activity. To screen caspase3 activity in a high throughput manner, a new functional screening assay was developed. The assay is based on a nanoluciferase fused to a degradation signaling peptide interlinked with caspase3 cleavage sites. Once activated, caspase3 cleaves protein linker, removes the degradation signal and prevents proteasomal digestion of the nanoluciferase.

[4] = test system: stressed mesothelial cells (heliocytes); assay: Apoptosis assay: fragmented DNA (Cell Death Detection ELISA) in in vitro bead assay; type: cell-based, human; details: 10 μM, stressed mesothelial cells (FIG. 11)
Procedure: FIG. 11: Apoptosis Assay. Measurement of fragmented DNA as indicator for apoptosis after 5 days having applied CK666, Golgicide A, Rhosin, Bepridil, Heat shock protein inhibitor 1 (HIS-1) using the in vitro bead assay. Stautosporin serves as a positive control.
Met-5A cells were seeded on gelatin (Sigma Aldrich, #G1393) coated dishes. Once a confluent monolayer was established, stressed cell-covered beads were seeded onto the monolayer. For the inhibitory experiments, if not indicated otherwise, monolayer cells were pretreated with 10 μM of indicated compounds for 30 minutes in culture medium. After 24 h fragmented DNA was determined via Cell Death Detection […] (Sigma Aldrich, #11774425001).
as §2

| Compound | protrusion development in heliocytes [1] | adhesion formation (carrier-carrier aggregation) [2] | transmissibility (Met-5A cells) | adhesion formation (adhesion score) (adhesion formation) | adhesion score (adhesion formation; single application of 10 nM in 2% cellulose, topical, 5 days after injury (FIG. 16)) | caspase3 activity (nanoluciferase activity of reporter) [3] | initial desiccation-induced transmission (Met-5A cells; HIF-1α inhibition (FIG. 3G)) | fragmented DNA (indicator for apoptosis) [4] |
| --- | --- | --- | --- | --- | --- | --- | --- | --- |
| CC(C)COCC(CN(Cc1ccccc1)c1ccccc1)N1CCCC1 (stereo not drawn) [Bepridil] | completely blocked | completely blocked | completely blocked | robustly inhibited adhesion formation |  |  |  |  |
| Cc1[nH]c2ccccc2c1CCNC(=O)c1ccccc1F [CK-666] | completely blocked | completely blocked | completely blocked | robustly inhibited adhesion formation |  |  |  |  |
| Fc1cc(F)c2c(c1)C1C=CCC1C(c1cccnc1)N2 (stereo not drawn) [Golgicide A] | completely blocked | completely blocked | completely blocked | robustly inhibited adhesion formation |  |  |  |  |
| CNc1ccc([N+](=O)[O-])c(Nc2ccc3[nH]ncc3c2)n1 [KRIBB11] |  |  |  |  | shows no effect |  |  |  |
| CN[C@@H]1C[C@H]2O[C@@](C)([C@@H]1OC)n1c3ccccc3c3c4c(c5c6ccccc6n2c5c31)C(=O)NC4 [Staurosporine] |  |  |  |  |  | enhanced nanoluciferase activity |  |  |
| CS[C@H]1SC[C@H]2C(=O)N(C)[C@@H](C(C)C)C(=O)OC[C@@H](NC(=O)c3cnc4ccccc4n3)C(=O)N[C@@H](C)C(=O)N(C)[C@@H]1C(=O)N(C)[C@@H](C(C)C)C(=O)OC[C@@H](NC(=O)c1cnc3ccccc3n1)C(=O)N[C@@H](C)C(=O)N2C [echinomycin] |  |  |  |  |  |  | could be prevented |  |
| Rhosin | completely blocked | completely blocked | completely blocked | robustly inhibited adhesion formation |  | higher caspase3 activity |  | significantly more fragmented DNA |
